Data set [1] relates to Pseudomonas aeruginosa. Kind of data set: Antibiofilm activity against Pseudomonas aeruginosa assessed as reduction in biofilm formation at 100 uM measured after 24 hrs. It counts as functional. More on the design: scale not given: the % may be the effect or the level left.
For data set [2], the system named is Pseudomonas aeruginosa. Kind of data set: Antibiofilm activity against Pseudomonas aeruginosa assessed as reduction in biofilm formation. It counts as functional, organism-based.
Data set [3] relates to Pseudomonas aeruginosa. The data set can be described thus: Antagonist activity at Pseudomonas aeruginosa MvfR at 15 uM relative to control. More on the design: scale not given: the % may be the effect or the level left. Conditions: filed as antagonist.
For data set [4], the species on record is Homo sapiens. Kind of data set: Inhibition of elastase (unknown origin) at 10 uM relative to control.
For data set [5], the system named is Pseudomonas aeruginosa. The data set can be described thus: Antibiofilm activity against Pseudomonas aeruginosa assessed as reduction in biofilm formation at 100 uM. Details: scale not given: the % may be the effect or the level left. It counts as functional.
For data set [6], the system named is Pseudomonas aeruginosa. Kind of data set: Antimicrobial activity against Pseudomonas aeruginosa assessed as reduction in bacterial growth. It counts as functional, organism-based.
For data set [7], the system named is Pseudomonas aeruginosa. Kind of data set: Antimicrobial activity against Pseudomonas aeruginosa PA14 assessed as reduction in bacterial growth. It counts as functional.
The subject of data set [8] is Pseudomonas aeruginosa. The data set can be described thus: Antimicrobial activity against Pseudomonas aeruginosa infected in mouse pneumonia model administered twice a day measured after 48 hrs. It counts as functional.
Data set [9] deals with Pseudomonas aeruginosa. The data set can be described thus: Antibacterial activity against Pseudomonas aeruginosa PAO1 assessed as reduction in bacterial growth. The class given is functional.
The test system of data set [10] is Pseudomonas aeruginosa. Kind of data set: Antibacterial activity against multidrug resistant Pseudomonas aeruginosa assessed as reduction in bacterial growth. The class given is functional.
Data set [11] deals with T1, Transcriptional activator protein LasR (Pseudomonas aeruginosa (strain ATCC 15692 / PAO1 / 1C / PRS 101 / LMG12228)) (UniProt P25084).
T1 sequence (whole entry): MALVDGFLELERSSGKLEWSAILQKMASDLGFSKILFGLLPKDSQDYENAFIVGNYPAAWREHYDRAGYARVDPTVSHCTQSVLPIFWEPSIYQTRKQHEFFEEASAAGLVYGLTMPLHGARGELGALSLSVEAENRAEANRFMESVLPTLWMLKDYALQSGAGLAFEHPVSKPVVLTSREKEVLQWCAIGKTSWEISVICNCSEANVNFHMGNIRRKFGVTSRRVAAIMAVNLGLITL
The data set can be described thus: Inhibition of Pseudomonas aeruginosa PAO1 LasR at 200 uM relative to control.

The target in data set [12] is Elastase (Pseudomonas aeruginosa (strain ATCC 15692 / PAO1 / 1C / PRS 101 / LMG12228), UniProt P14756). Kind of data set: Inhibition of Pseudomonas aeruginosa LasB elastase using aminobenzoyl-Ala-Gly-Leu-Ala-p-nitro-benzyl-amide as substrate b microtiter-based fluorimetric assay.
Data set [13] in a line: Half life in mouse. The class given is ADME, organism-based. Conditions: in vivo.
Data set [14] relates to Pseudomonas aeruginosa. Kind of data set: Antibacterial activity against Pseudomonas aeruginosa PAO1 infected in Caenorhabditis elegans worms assessed as worms survival at 50 uM measured after 24 hrs. It counts as functional.
Data set [15] relates to Pseudomonas aeruginosa. Kind of data set: Inhibition of biofilm formation in Pseudomonas aeruginosa assessed as reduction in biofilm formation. It counts as functional, organism-based.
Data set [16] addresses T2, PA-I galactophilic lectin (Pseudomonas aeruginosa (strain ATCC 15692 / PAO1 / 1C / PRS 101 / LMG12228)) (UniProt Q05097).
T2 sequence (whole entry): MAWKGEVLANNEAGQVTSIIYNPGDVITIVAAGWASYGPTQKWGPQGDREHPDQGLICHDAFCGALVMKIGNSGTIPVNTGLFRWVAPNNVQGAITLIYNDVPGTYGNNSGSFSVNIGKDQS
Kind of data set: Binding affinity to Pseudomonas aeruginosa PAO1 LecA assessed as dissociation constant.

In data set [17] the target is T3, Acyl-homoserine lactone acylase PvdQ (Pseudomonas aeruginosa (strain LESB58), UniProt Q9I194).
T3 sequence (Q9I194 whole entry): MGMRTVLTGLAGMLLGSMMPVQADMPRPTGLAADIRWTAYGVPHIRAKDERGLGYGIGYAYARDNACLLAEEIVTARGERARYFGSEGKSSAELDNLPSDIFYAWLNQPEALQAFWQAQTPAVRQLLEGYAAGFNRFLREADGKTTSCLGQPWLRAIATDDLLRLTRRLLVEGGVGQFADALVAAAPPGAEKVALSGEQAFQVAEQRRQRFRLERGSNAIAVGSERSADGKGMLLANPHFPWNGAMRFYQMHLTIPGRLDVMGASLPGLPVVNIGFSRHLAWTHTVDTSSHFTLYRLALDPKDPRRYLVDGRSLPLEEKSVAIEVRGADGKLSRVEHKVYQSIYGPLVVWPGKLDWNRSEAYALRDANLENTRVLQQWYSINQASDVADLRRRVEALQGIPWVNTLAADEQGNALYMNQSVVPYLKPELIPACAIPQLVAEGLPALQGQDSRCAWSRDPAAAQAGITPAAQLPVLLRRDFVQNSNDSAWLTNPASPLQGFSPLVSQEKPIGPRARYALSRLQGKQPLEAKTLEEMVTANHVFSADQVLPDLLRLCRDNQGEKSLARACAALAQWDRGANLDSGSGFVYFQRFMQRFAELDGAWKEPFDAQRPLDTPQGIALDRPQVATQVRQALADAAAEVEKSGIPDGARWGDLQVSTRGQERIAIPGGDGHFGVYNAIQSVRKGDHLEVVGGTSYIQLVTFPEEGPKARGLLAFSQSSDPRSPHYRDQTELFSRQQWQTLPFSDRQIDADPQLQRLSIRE
Kind of data set: Inhibition of Pseudomonas aeruginosa ATCC 15692 pvdQ.

For data set [18], the target named is T3, Acyl-homoserine lactone acylase PvdQ. The data set can be described thus: Inhibition of Pseudomonas aeruginosa ATCC 15692 pvdQ incubated for 4 hrs.

pIC50, pKi: −log10 of the molar value. In brackets after ≈: the same amount, converted by molar mass.

17 compounds from ChEMBL document CHEMBL5257018, “Novel Strategies for the Treatment of Pseudomonas aeruginosa Infections” (J Med Chem, 2016) can be followed below.

Chain of Elastase (P14756 whole entry): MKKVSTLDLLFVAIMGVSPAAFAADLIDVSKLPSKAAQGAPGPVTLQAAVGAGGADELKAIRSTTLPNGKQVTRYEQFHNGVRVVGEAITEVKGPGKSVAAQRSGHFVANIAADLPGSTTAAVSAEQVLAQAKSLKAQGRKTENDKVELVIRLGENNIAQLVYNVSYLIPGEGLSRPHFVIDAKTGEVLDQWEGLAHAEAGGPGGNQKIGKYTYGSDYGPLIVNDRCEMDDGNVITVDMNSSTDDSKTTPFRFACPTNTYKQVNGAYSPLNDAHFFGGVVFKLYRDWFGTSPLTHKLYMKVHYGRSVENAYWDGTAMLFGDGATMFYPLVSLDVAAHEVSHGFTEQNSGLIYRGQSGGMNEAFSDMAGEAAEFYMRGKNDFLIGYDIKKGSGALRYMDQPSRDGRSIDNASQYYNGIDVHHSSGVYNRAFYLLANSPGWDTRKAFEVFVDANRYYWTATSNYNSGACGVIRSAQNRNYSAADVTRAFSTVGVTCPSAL

Take `COc1ccc2[nH]c(SCc3ccc(C)cc3)nc2c1`: in data set [1], the Activity is listed as 50%. Besides, the negative logarithm of the IC50 (pIC50) in data set [2] is 7.34.
`CCCCCCCc1cc(=O)c2cc([N+](=O)[O-])ccc2[nH]1` registered an Activity in [3] of 44%.
Consider `CCCCCCCCCC(=O)CC(=O)Nc1ccccc1O`, for which, in [4], the inhibition came out at 50%.
With `O=C(Nc1ccc(Nc2ccccc2)cc1)c1ccccc1`, the Activity in data set [5] was 22%. In addition, in data set [2], the pIC50 was 4.59.
In the case of `CO[C@H](C(N)=O)[C@H](NC(=O)c1ccc(NC(=O)c2ccc([N+](=O)[O-])cc2)cc1)C(=O)Nc1ccc(C(=O)Nc2ccc(C(=O)Nc3ccc(C(=O)O)cc3OC(C)C)c(O)c2OC(C)C)cc1`, the MIC in data set [6] came out at 1 µg/mL; in [7], 3.4 µg/mL (≈ 3.7 µM).
`COc1ccc(-c2ccn(CC[C@](C)(C(=O)NO)S(C)(=O)=O)c(=O)c2)c(F)c1` yielded an ED50 in [8] below 25 mg/kg.
Regarding `CC(=O)Oc1cccc(C(=O)NCCCC(CCCNC(=O)c2cccc(OC(C)=O)c2OC(C)=O)(CCCNC(=O)c2cccc(OC(C)=O)c2OC(C)=O)NC(=O)CCC(=O)N[C@@H](C(=O)N[C@@H]2C(=O)N3[C@@H]2SC(C)(C)[C@@H]3C(=O)O)c2ccccc2)c1OC(C)=O`, the MIC in [6] was 0.39 µM; in [9], above 200 µM.
For `CNc1cc(F)cc2c1[nH]c1nc(Sc3cnc(C)nc3)nc(N3C[C@H]4C[C@@H](N(C)C)[C@H]4C3)c12`, the MIC in [10] turned out to be 2 µg/mL (≈ 4.18 µM).
Take `O=C(CCCc1c[nH]c2ccccc12)N[C@H]1CCOC1=O`: the inhibition in data set [11] worked out at 66%.
The compound `CC(C)C[C@H](NP(=O)(O)O[C@@H]1O[C@@H](C)[C@H](O)[C@@H](O)[C@H]1O)C(=O)N[C@@H](Cc1c[nH]c2ccccc12)C(=O)O` [PHOSPHORAMIDON] showed a pKi in data set [12] of 7.24.
With `Cc1c(O)c(=S)ccn1Cc1ccc(-c2ccccc2)cc1`, the pIC50 in [12] is 5.52.
For `CC(=O)Oc1cccc(C(=O)NCCCC(CCCNC(=O)c2cccc(OC(C)=O)c2OC(C)=O)(CCCNC(=O)c2cccc(OC(C)=O)c2OC(C)=O)NC(=O)CCC(=O)N[C@@H](C(=O)N[C@@H]2C(=O)N3[C@@H]2SC(C)(C)[C@@H]3C(=O)O)c2ccc(O)cc2)c1OC(C)=O`, the MIC in data set [6] was 0.39 µM; in data set [9], above 200 µM.
Take `CO[C@H]1O[C@H](CO)[C@@H](O)[C@H](O)[C@@H]1O`: the half-life in [13] is 45 s.
For the compound `O=C(CCCOc1ccc(Br)cc1)NC1CCSC1=O` (centres undefined), the Activity in data set [14] was found to be 23%. Further, the negative logarithm of the IC50 (pIC50) in [15] is 5.10.
On to `OC[C@H]1O[C@@H](OCc2cn([C@H]3[C@H](O)[C@@H](O)[C@H](c4cn([C@H]5[C@H](O)[C@@H](O)[C@H](n6cc([C@@H]7O[C@H](CO)[C@@H](n8cc(CO[C@@H]9O[C@H](CO)[C@H](O)[C@H](O)[C@H]9O)nn8)[C@H](O)[C@H]7O)nn6)O[C@@H]5CO)nn4)O[C@@H]3CO)nn2)[C@H](O)[C@@H](O)[C@H]1O`, for which the K in data set [16] worked out at 28 nM.
For the compound `O=c1onc2n1-c1cc(Br)ccc1OC2`, the pIC50 in [17] was 4.19; in data set [18], above 7.70.
On to `O=C(Nc1ccc(O)c(=O)cc1)Nc1cccc2ccccc12`, for which the negative-log IC50 (pIC50) in data set [12] is 6.00.

What is called pIC50 is −log10 of the IC50, conventionally taken in molar units. One may read the inhibition as how much of the control response was suppressed. For orientation: MIC means the smallest concentration in the dilution series that meets the test's criterion for growth inhibition. One may read the ED50 as the dose that gives a 50% effect, or the effect in half of the subjects. As usually defined, the pKi is −log10 of the Ki, conventionally taken in molar units. What is called half-life is the time needed for the level to fall by half in the phase considered.
